The text below walks through data of PMC3940079 (International Journal for Parasitology: Drugs and Drug …, 2013).

The target of experiment [1] is T1, P2 aminopurine transporter (TbAT1) (Trypanosoma brucei, UniProt Q9Y0I0).
T1 sequence (Q9Y0I0 1-463): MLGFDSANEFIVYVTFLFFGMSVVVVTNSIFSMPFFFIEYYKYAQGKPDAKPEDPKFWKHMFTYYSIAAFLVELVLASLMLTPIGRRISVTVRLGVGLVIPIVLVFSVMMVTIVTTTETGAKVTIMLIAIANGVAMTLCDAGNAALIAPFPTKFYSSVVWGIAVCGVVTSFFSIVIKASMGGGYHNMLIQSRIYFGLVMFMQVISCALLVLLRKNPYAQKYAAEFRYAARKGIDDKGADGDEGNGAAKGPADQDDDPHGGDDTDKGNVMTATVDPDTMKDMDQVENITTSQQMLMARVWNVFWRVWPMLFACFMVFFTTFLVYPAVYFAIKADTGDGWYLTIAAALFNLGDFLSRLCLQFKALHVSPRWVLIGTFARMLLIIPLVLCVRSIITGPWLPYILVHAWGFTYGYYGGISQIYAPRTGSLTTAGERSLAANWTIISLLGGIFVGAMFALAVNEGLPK
Nature of the experiment: inhibition of […] [3H]-adenosine uptake. In kind it is cell-based.

Experiment [2] deals with H3 nucleobase transporter. The experiment in a line: inhibition of […] [3H]-hypoxanthine uptake in bloodstream-form trypanosomes. In kind it is cell-based, Trypanosoma brucei brucei.
For experiment [3], the target named is H2 nucleobase transporter. Described as above. In kind it is cell-based, Trypanosoma brucei brucei.

Take `Nc1ncnc2n[nH]cc12` [aminopurinol]: the Ki (in general, the equilibrium dissociation constant of an inhibitor or competing ligand from its target) in experiment [1] was found to be 75.3 ± 5.7 µM; in experiment [2] it was 105 ± 24 µM; in experiment [3] it was 230 ± 35 µM.
